Measured values published in PMC10609013, “Solubility and Thermodynamic Analysis of Isotretinoin in Different (DMSO + Water) Mixtures” (Molecules, 2023).

Experiment: Apparent thermodynamic analysis of ITN dissolution (van't Hoff and Gibbs equations)
Assay type: physicochemical
Description: At the mean harmonic temperature (Thm), all apparent thermodynamic parameters for ITN were determined. The Thm was determined using the reported equation [51, 56]. […] The “van’t Hoff and Gibbs equations” were used to calculate these parameters. The ΔsolH^0 values for ITN (3) in various {DMSO (1) + H2O (2)} mixtures were calculated using Equation (10) and Thm = 308 K [47, 62]:(10) ∂lnxe/∂1/T−1/ThmP=−∆solH^0/R
The “ΔsolH^0” for ITN was derived using the graphed “van’t Hoff” plots between the ln xe values of ITN and 1/T−1/Thm .
Additionally, at Thm = 308 K, the ΔsolG^0 for ITN (3) in binary {DMSO (1) + H2O (2)} mixes was calculated using the Krug et al. methodology via Equation (11):(11) ∆solG^0=−RThm×intercept where, the “van’t Hoff plots” shown in Figure 5 were used to determine the intercept values for ITN (3) in binary mixtures of DMSO (1) and H2O (2).
By Equation (12), the ΔsolS^0 for ITN (3) in numerous {DMSO (1) + H2O (2)} mixtures was derived:(12) ∆solS^0=∆solH^0−∆solG^0/Thm

[1] = DMSO mass fraction m = 0.0, Thm = 308 K
[2] = DMSO mass fraction m = 0.1, Thm = 308 K
[3] = DMSO mass fraction m = 0.2, Thm = 308 K
[4] = DMSO mass fraction m = 0.3, Thm = 308 K
[5] = DMSO mass fraction m = 0.4, Thm = 308 K
[6] = DMSO mass fraction m = 0.5, Thm = 308 K
[7] = DMSO mass fraction m = 0.6, Thm = 308 K
[8] = DMSO mass fraction m = 0.7, Thm = 308 K
[9] = DMSO mass fraction m = 0.8, Thm = 308 K
[10] = DMSO mass fraction m = 0.9, Thm = 308 K
[11] = DMSO mass fraction m = 1.0, Thm = 308 K

ΔsolG^0 apparent standard Gibbs energy [1]: 36.27 (0.43) kJ mol^−1
ΔsolH^0 apparent standard enthalpy [1]: 63.00 (0.76) kJ mol^−1
ΔsolS^0 apparent standard entropy [1]: 86.78 (1.12) J mol^−1 K^−1
ΔsolG^0 apparent standard Gibbs energy [2]: 33.20 (0.41) kJ mol^−1
ΔsolH^0 apparent standard enthalpy [2]: 57.15 (0.67) kJ mol^−1
ΔsolS^0 apparent standard entropy [2]: 77.75 (1.03) J mol^−1 K^−1
ΔsolG^0 apparent standard Gibbs energy [3]: 30.19 (0.39) kJ mol^−1
ΔsolH^0 apparent standard enthalpy [3]: 52.98 (0.63) kJ mol^−1
ΔsolS^0 apparent standard entropy [3]: 73.99 (1.00) J mol^−1 K^−1
ΔsolG^0 apparent standard Gibbs energy [4]: 27.15 (0.37) kJ mol^−1
ΔsolH^0 apparent standard enthalpy [4]: 46.19 (0.52) kJ mol^−1
ΔsolS^0 apparent standard entropy [4]: 61.83 (0.98) J mol^−1 K^−1
ΔsolG^0 apparent standard Gibbs energy [5]: 24.14 (0.36) kJ mol^−1
ΔsolH^0 apparent standard enthalpy [5]: 41.89 (0.48) kJ mol^−1
ΔsolS^0 apparent standard entropy [5]: 57.59 (0.92) J mol^−1 K^−1
ΔsolG^0 apparent standard Gibbs energy [6]: 21.13 (0.30) kJ mol^−1
ΔsolH^0 apparent standard enthalpy [6]: 35.40 (0.42) kJ mol^−1
ΔsolS^0 apparent standard entropy [6]: 46.31 (0.81) J mol^−1 K^−1
ΔsolG^0 apparent standard Gibbs energy [7]: 18.10 (0.26) kJ mol^−1
ΔsolH^0 apparent standard enthalpy [7]: 31.28 (0.40) kJ mol^−1
ΔsolS^0 apparent standard entropy [7]: 42.78 (0.74) J mol^−1 K^−1
ΔsolG^0 apparent standard Gibbs energy [8]: 15.10 (0.24) kJ mol^−1
ΔsolH^0 apparent standard enthalpy [8]: 23.95 (0.32) kJ mol^−1
ΔsolS^0 apparent standard entropy [8]: 28.74 (0.56) J mol^−1 K^−1
ΔsolG^0 apparent standard Gibbs energy [9]: 12.07 (0.20) kJ mol^−1
ΔsolH^0 apparent standard enthalpy [9]: 20.05 (0.28) kJ mol^−1
ΔsolS^0 apparent standard entropy [9]: 25.90 (0.48) J mol^−1 K^−1
ΔsolG^0 apparent standard Gibbs energy [10]: 9.078 (0.14) kJ mol^−1
ΔsolH^0 apparent standard enthalpy [10]: 13.35 (0.22) kJ mol^−1
ΔsolS^0 apparent standard entropy [10]: 13.87 (0.23) J mol^−1 K^−1
ΔsolG^0 apparent standard Gibbs energy [11]: 6.077 (0.09) kJ mol^−1
ΔsolH^0 apparent standard enthalpy [11]: 7.430 (0.10) kJ mol^−1
ΔsolS^0 apparent standard entropy [11]: 4.392 (0.10) J mol^−1 K^−1
nature of dissolution (all {DMSO (1) + H2O (2)} mixes, including neat DMSO and H2O): endothermic and entropy-driven
SMILES: CC1=C(/C=C/C(C)=C/C=C/C(C)=C\C(=O)O)C(C)(C)CCC1 [ITN, isotretinoin]
